The values below come from patent publication US9163044B2, “Carbon monoxide releasing molecules and uses thereof” (Alfama, Inc., priority 2011, dated 2015).

SMILES strings stand for the structures.

Data set [1] relates to APAP-induced acute liver failure (ALF) model. In words: APAP-induced acute liver failure (ALF) model, sublethal (300 mg/kg APAP i.p.). The format is in vivo, C57Bl/6 male mice. Particulars: for ALT levels reduced relative to untreated control animals: +5 h after APAP (300 mg/kg), ALT at 22 hours. How it is done: Compound 3b was studied in a sublethal model for acetaminophen (APAP)-induced Liver Injury.
ALF was induced in C57Bl/6 male mice with a single dose of acetaminophen (300 mg/kg) by i.p. injection. […] Serum alanine aminotransferase (ALT) was measured 22 h after APAP injection (n=5 mice for each group). […] ALF was induced in C57Bl/6 male mice with a single dose of acetaminophen (300 mg/kg) by i.p. injection. […] Twenty-two hours after APAP injection serum ALT was measured (indicated in FIG. 11A), centrilobular sections of mouse livers were cut and stained with hematoxylin and eosin, and the percentage of liver necrosis was determined. The data indicates a dose-dependent reduction of ALT levels of 9% to 83% relative to APAP control, and a dose-dependent reduction of necrosis of 0% to 56% relative to APAP control.
ALF was induced in C57Bl/6 male mice with a single dose of acetaminophen (300 mg/kg) by i.p. injection. […] Alanine aminotransferase (ALT) was measured 22 h after APAP injection (n=4 or n=5 mice for each group).
ALF was induced in C57Bl/6 male mice with a single dose of acetaminophen (300 mg/kg) by i.p. injection. […] Twenty-two hours after APAP injection, serum ALT was measured (indicated in FIGS. 12A-12B), centrilobular sections of mouse livers were cut and stained with hematoxylin and eosin, and the percentage of liver necrosis was determined.
ALF was induced in C57Bl/6 male mice with a single dose of acetaminophen (300 mg/kg) by i.p. injection.
FIG. 14 depicts the effect of late treatment with Compound 3b on serum ALT in ALF model. ALF was induced in C57Bl/6 male mice with a single dose of acetaminophen (300 mg/kg) by i.p. injection. At sixteen hours after APAP injection, the animals were treated with different doses of Compound 3b (0.3, 3, 30 or 60 mg/kg). Alanine aminotransferase (ALT) was measured 22 h after APAP injection (n=4 or n=5 mice for each group).
ALF was induced in C57Bl/6 male mice with a single dose of acetaminophen (300 mg/kg) by i.p. injection. […] Experiments 1 and 2 represent two independent experiments. Alanine aminotransferase (ALT) was measured 22 h after APAP injection (n=4 or n=5 mice for each group). The ALT levels and the respective percentage of ALT increase, relative to the increase observed in mice injected with APAP alone, are presented in Table 7.
ALF was induced in C57Bl/6 male mice with a single dose of acetaminophen (300 mg/kg) by i.p. injection. […] Twenty-two hours after APAP injection, serum ALT was measured and centrilobular sections of mouse livers were cut and stained with hematoxylin and eosin.

Data set [2] is described as follows: half-life for CO release in sheep blood using an oximeter. It is filed as in vitro ADME. Particulars: 632.1 μg/mL. The procedure: The stability of compound 4b was determined by measuring the release of CO in vitro in 50 mM Hepes buffer (pH 7.4) using a RCP-equipped GC. Compound 4b concentration was 50 μM. […] The half-life for CO release was also measured in sheep blood using an oximeter. A concentration of 632.1 μg/mL of compound 4b was used.
The half-life for CO release was also measured in sheep blood using an oximeter. […] Compound 5b released 0.12 molar equivalents of CO in 3 hours.

Data set [3] concerns murine partial hepatectomy model. Particulars: from Yang et al., Crit. Care (2009); cited from earlier work.
In data set [4] the test system is lethal APAP liver failure model. Put plainly: lethal APAP liver failure model (500 mg/kg APAP i.p.), survival. Particulars: 2×300 mg/kg, same schedules; data not shown.
The mark [5] stands for this setting: NAC 2 × 300 mg/kg at 1 h and 3 h post APAP, serum 22 h.

With `O=C([O-])CC([N+]#[C][Mo-6]([C]#[O+])([C]#[O+])([C]#[O+])([C]#[N+]C(CC(=O)[O-])C(=O)[O-])[C]#[N+]C(CC(=O)[O-])C(=O)[O-])C(=O)[O-].[Li+].[Li+].[Li+].[Li+].[Li+].[Li+]` (centres unmarked) [Compound 4b, tricarbonyl[tris(lithium 2-isocyanosuccinate)]Mo(0)], the “ALT levels reduced relative to untreated control animals” value in data set [1] (30 mg/kg i.p. at +3 h) is 75%.
In the case of `O=C(O)C1([N+]#[C][Mo-6]([C]#[O+])([C]#[O+])([C]#[O+])([C]#[N+]C2(C(=O)O)CC2)[C]#[N+]C2(C(=O)O)CC2)CC1` [Compound 5b, tricarbonyl[tris(isocyanocyclopropylcarboxylic acid)]Mo(0)], the “ALT levels reduced relative to untreated control animals” value in data set [1] (120 mg/kg i.p. at +3 h) came to 70%. Besides, the “CO released in sheep blood in 3 hours” value in data set [2] is 0.12 molar equivalents of CO.
As for `CC(=O)N[C@@H](CS)C(=O)O` [NAC, N-acetylcysteine, reference compound], in data set [1] (setting [5]), the “Measured ALT values (mean ± S.D.) Experiment 1” value is 1745 ± 738 U/L and the “Measured ALT values (mean ± S.D.) Experiment 2” value is given as 6620 ± 2142 U/L. In addition, the “effect on serum ALT when given late after APAP injury (in words)” value in data set [1] (five hours and seven hours after APAP, NAC 150 mg/kg, Compound 3b 120 mg/kg) was “no longer effective and increases serum ALT levels (is toxic)”. Moreover, the “effect on liver regeneration (in words)” value in data set [3] is “no effect and may be detrimental”. The survival in data set [4] is listed as 100%.
